Measurements as given in US20180244548A1, “USE OF COPPER-CARBON COMPOSITE NANOMATERIAL IN ALGAE CONTROL” (Suzhou Guanjie Nano Anti-bacteria Coating Technology Co., …, priority 2015, published 2018).
Where “and” joins values, the source holds several entries; their conditions need not be identical. Equal entries are not always repeated.

Key:
[1] = system: scenedesmus (green algae), chlorella (green algae) and microcystis aeruginosa (blue algae); assay: laboratory algae growth inhibition, α content of chlorophyll over time; assay type: cell-based; details: copper sulfate 6 ppm
[2] = system: scenedesmus, chlorella and microcystis aeruginosa cells; assay: scanning electron microscope appearance observation of algae cells; assay type: cell-based; details: nanomaterial 6.25-50 ppm; activated carbon 50 ppm; copper oxide 50 ppm; copper sulfate 6 ppm

Compound: O=S(=O)([O-])[O-].[Cu+2] [copper sulfate]
- inhibition time of algae growth [1]: 7 to 9 days and 7 days
- appearance of algae cells in scanning electron micrographs [2]: completely changed
